Laboratory results as given in patent publication US20230181727A1, “COMPOSITION OF NANOPARTICLES” (priority 2020, published 2023).

Assays:
DC2.4 cells = assay: MHC I cross presentation of OVA 257-264 in DC2.4 cells; assay type: cell-based, murine; conditions: 5 μM, 6 h incubation, 25-D1.16 antibody, flow cytometry
Description: In the experiment, the OVA257-264 presentation efficacy after incubation of 5.10^4 DC2.4 cells with 5 μM solutions of full length protein (OVA=Ovalbumin), N— and C-terminal elongated epitope (OVA247-264A5K, a so called synthetic long peptide (SLP)), N-terminal elongated epitope with a Cathepsin B cleavable sequence (exemplary shown RW-Cit-OVA257-264) or native epitope (OVA257-264), each with and without nanoparticles, was compared. […] After an incubation time of 6 h, the test substances are removed by washing with phosphate-buffered saline (PBS). In the next step, the cells were incubated with CD1 6/CD32 antibody in order to block the non-specific binding of the detection antibody to the Fc (Fragment, crystallizable) receptor of the cells. After incubation with 25-D1.16 antibody, the amount of cross-presented OVA257-264 was quantified by flow cytometry.
FIG. 16: OVA257-264 MHC I expression after 6 h incubation of H2-Kb positive cells with 5 μM solution of native or elongated OVA257-264 epitope or full length OVA protein with or without SiO2—PO3H2. Quantification was carried out by flow cytometry after labeling with 25-D1.16 detection antibody.

[1] = Solubility enhancement of epitopes (solubility in water); assay type: physicochemical
Source text: On the N-terminal site of the enzymatically cleaved linker the addition of polar amino acids can be used to enhance the solubility of the whole peptide. […] The use in a human vaccine is difficult. In animal studies researchers dissolve it in DMSO. The solubility after e.g. subcutaneous injection is questionable: dilution might result in precipitation of large peptide particles, which is very unfavorable for transport to lymphnodes.
According to the invention the epitope […] was enlarged on the N-terminal site with the enzymatic cleavable linker Val-Cit and the cationic solubilizing sequence Lys-Lys-Lys, leading to […]

Row | Compound | OVA257-264 MHC I expression (DC2.4 cells) | solubility in water [1]
1 | SIINFEKL [OVA257-264] | presented in significant amounts | 
2 | CC[C@H](C)[C@H](NC(=O)CNC(=O)[C@H](CC(C)C)NC(=O)[C@@H](NC(=O)CNC(=O)[C@H](CCSC)NC(=O)[C@H](CC(C)C)NC(=O)[C@H](CC(C)C)NC(=O)[C@H](CCCNC(N)=O)NC(=O)[C@@H](NC(=O)[C@H](CCCCN)NC(=O)[C@H](CCCCN)NC(=O)[C@@H](N)CCCCN)C(C)C)[C@@H](C)O)C(=O)N[C@H](C(=O)O)C(C)C |  | excellent solubility in water
3 | CC[C@H](C)[C@H](NC(=O)CNC(=O)[C@H](CC(C)C)NC(=O)[C@@H](NC(=O)CNC(=O)[C@H](CCSC)NC(=O)[C@H](CC(C)C)NC(=O)[C@@H](N)CC(C)C)[C@@H](C)O)C(=O)N[C@H](C(=O)O)C(C)C |  | very bad solubility in water
